Among the data in ChEMBL document CHEMBL4619743, “Synthetic approaches towards bedaquiline and its derivatives” (2020) are MIC90 values, retold here.

Test [1] concerns Mycobacterium tuberculosis. Description: Antimycobacterial activity against Mycobacterium tuberculosis H37Rv. In kind it is functional.
For test [2], the system named is Mycobacterium tuberculosis. Put plainly: Antimycobacterial activity against Mycobacterium tuberculosis. In kind it is functional.

In brackets after ≈: the same amount, converted by molar mass.

One may read the MIC90 as the lowest concentration that inhibits either 90% of growth or 90% of the strains tested, depending on the study. With `COc1cc2ccc(Br)cc2cc1[C@@H](c1ccccc1)[C@@](O)(CCN(C)C)c1cccc2ccccc12`, the MIC90 in test [1] came out at 0.59 µg/mL (≈ 1.06 µM).

In test [1], `COc1cc2ccc(Br)cc2cc1[C@@H](c1ccccc1)[C@@](O)(CCN(C)C)c1cccc(Br)c1` had an MIC90 of 0.01 µg/mL (≈ 0.0171 µM).

As for `COc1cc2ccc(Br)cc2cc1[C@@H]1O[C@H]1CO`, the MIC90 in test [1] is 0.11 µg/mL (≈ 0.356 µM); in test [2], 0.13 to 0.5 µg/mL (≈ 0.42 to 1.62 µM).
